# Data from patent US10408783B2, “Electrochemical methods and compounds for the detection of enzymes” (GEORGIA STATE UNIVERSITY RESEARCH FOUNDATION, INC., priority 2014, dated 2019).
# Entries after “also recorded” stand apart in the source; their conditions may differ.
# Key:
# [1] = test system: β-Glucuronidase; conditions: substrate incubated with β-Glucuronidase
# [2] = test system: β-Galactosidase; conditions: substrate incubated with β-Galactosidase
# [3] = test system: bacterial NA (BNA) from Clostridium perfringens; type: biochemical
# [4] = test system: membrane free soluble N1 NA (strain H5N1 A/Anhui/1/2005); type: biochemical, influenza virus; conditions: for inhibition of NA (glucose release from SG1) by antiviral: 10 ng antiviral premixed 30 min before SG1
# [5] = test system: H1N1 A/Brisbane/59/2007; experiment: Electrochemical assay, 3 electrode system: SG1 cleavage and drug susceptibility; type: biochemical, Influenza A virus; conditions: for inhibition of NA (glucose release from SG1) by antiviral: 10 ng antiviral premixed 30 min before SG1
# [6] = test system: H3N2 A/Aichi/2/1968; experiment: as above; type: biochemical, Influenza A virus; conditions: for inhibition of NA (glucose release from SG1) by antiviral: 10 ng antiviral premixed 30 min before SG1
# [7] = test system: N2 NA (strain A/Babol/36/2005); experiment: as above; type: biochemical, influenza virus; conditions: for inhibition of NA (glucose release from SG1) by antiviral: 10 ng antiviral premixed 30 min before SG1
# [8] = test system: H3N2 A/HongKong/8/68; experiment: as above; type: biochemical, Influenza A virus; conditions: for inhibition of NA (glucose release from SG1) by antiviral: 10 ng antiviral premixed 30 min before SG1
# [9] = test system: β-N-Acetylglucosaminidase; type: biochemical; conditions: substrate incubated with β-N-Acetylglucosaminidase
# [10] = test system: A/Brisbane/59/2007 (H1N1); experiment: Electrochemical assay using the printed electrodes; type: biochemical, Influenza A virus; conditions: 100 μL virus + 100 μL PBS buffer with SG1, 1 hour, 37° C.; 20 μL tested
# [11] = test system: A/Wisconsin/15/2009 (H3N2); experiment: Electrochemical assay using the printed electrodes; type: biochemical, Influenza A virus; conditions: 100 μL virus + 100 μL PBS buffer with SG1, 1 hour, 37° C.; 20 μL tested
# [12] = test system: A/Victoria/361/2011 (H3N2); experiment: Electrochemical assay using the printed electrodes; type: biochemical, Influenza A virus; conditions: 100 μL virus + 100 μL PBS buffer with SG1, 1 hour, 37° C.; 20 μL tested
# [13] = test system: A/Wisconsin/629-D02452/2009 (H1N1); experiment: Electrochemical assay using the printed electrodes; type: biochemical, Influenza A virus; conditions: 100 μL virus + 100 μL PBS buffer with SG1, 1 hour, 37° C.; 20 μL tested
# [14] = Electrochemical assay, 3 electrode system: SG1 in PBS buffer without enzyme; conditions: SG1 0.5 mM in PBS buffer, no NA or virus
# [15] = test system: A/San Diego/1/2009 (H1N1); experiment: Electrochemical assay using the printed electrodes; type: biochemical, Influenza A virus; conditions: 100 μL virus + 100 μL PBS buffer with SG1, 1 hour, 37° C.; 20 μL tested
# [16] = test system: A/Sydney/5/1997 (H3N2); experiment: Electrochemical assay using the printed electrodes; type: biochemical, Influenza A virus; conditions: 100 μL virus + 100 μL PBS buffer with SG1, 1 hour, 37° C.; 20 μL tested
# [17] = test system: A/PuertoRico/8/1934 (H1N1); experiment: Electrochemical assay using the printed electrodes; type: biochemical, Influenza A virus; conditions: 100 μL virus + 100 μL PBS buffer with SG1, 1 hour, 37° C.; 20 μL tested
# [18] = test system: A/Wilson-Smith/1933 (H1N1); experiment: Electrochemical assay using the printed electrodes; type: biochemical, Influenza A virus; conditions: 100 μL virus + 100 μL PBS buffer with SG1, 1 hour, 37° C.; 20 μL tested
# [19] = test system: A/HongKong/8/1968 (H3N2); experiment: Electrochemical assay using the printed electrodes; type: biochemical, Influenza A virus; conditions: 100 μL virus + 100 μL PBS buffer with SG1, 1 hour, 37° C.; 20 μL tested
# [20] = test system: A/Beijing/262/1995 (H1N1); experiment: Electrochemical assay using the printed electrodes; type: biochemical, Influenza A virus; conditions: 100 μL virus + 100 μL PBS buffer with SG1, 1 hour, 37° C.; 20 μL tested
# [21] = test system: A/Nanching/933/1995 (H3N2); experiment: Electrochemical assay using the printed electrodes; type: biochemical, Influenza A virus; conditions: 100 μL virus + 100 μL PBS buffer with SG1, 1 hour, 37° C.; 20 μL tested
# [22] = test system: A/Brownsville/31H/2009 (H1N1); experiment: Electrochemical assay using the printed electrodes; type: biochemical, Influenza A virus; conditions: 100 μL virus + 100 μL PBS buffer with SG1, 1 hour, 37° C.; 20 μL tested
# [23] = test system: A/Solomon Islands/3/2006 (H1N1); experiment: Electrochemical assay using the printed electrodes; type: biochemical, Influenza A virus; conditions: 100 μL virus + 100 μL PBS buffer with SG1, 1 hour, 37° C.; 20 μL tested
# [24] = test system: A/Uruguay/716/2007 (H3N2); experiment: Electrochemical assay using the printed electrodes; type: biochemical, Influenza A virus; conditions: 100 μL virus + 100 μL PBS buffer with SG1, 1 hour, 37° C.; 20 μL tested
# [25] = test system: A/New Caledonia/20/1999 (H1N1); experiment: Electrochemical assay using the printed electrodes; type: biochemical, Influenza A virus
# [26] = test system: A/New York/18/2009 (H1N1); experiment: Electrochemical assay using the printed electrodes; type: biochemical, Influenza A virus; conditions: 100 μL virus + 100 μL PBS buffer with SG1, 1 hour, 37° C.; 20 μL tested
# [27] = test system: A/Aichi/2/1968 (H1N1); experiment: Electrochemical assay using the printed electrodes; type: biochemical, Influenza A virus
# [28] = Electrochemical assay using the printed electrodes, SG1 without virus; conditions: No virus + SG1 (negative control)
# [29] = test system: A/California/07/2009 (H1N1); experiment: Electrochemical assay using the printed electrodes; type: biochemical, Influenza A virus; conditions: 100 μL virus + 100 μL PBS buffer with SG1, 1 hour, 37° C.; 20 μL tested
# [30] = test system: α-L-Fucosidase; type: biochemical; conditions: substrate incubated with α-L-Fucosidase
# [31] = SG1 0.5 mM, 2 hours, 23° C., PBS buffer
# [32] = 100 μL UV inactivated virus, 1 hour
# [33] = 0.5 mM SG1, compared with one hour for most strains
# [34] = 100 μL virus + 100 μL PBS buffer with SG1, 1 hour, 37° C., 20 μL tested
smiles,measurement,setting,value
OCC1O[C@@H](OCc2ccc(O[C@@H]3OC(CO)[C@H](O)[C@H](O)C3O)cc2)C(O)[C@@H](O)[C@@H]1O (some centres unmarked) [Substrate 21],"i, value of electrochemical assay",[1],10.4 ± 1.3 10^−8 A
same,"i, value of electrochemical assay",[2],77.9 ± 7.3 10^−8 A
CC(=O)N[C@H]1[C@H]([C@H](O)[C@H](O)CO)OC(C(=O)O)=C[C@@H]1N=C(N)N [Zanamivir],inhibition of bacterial NA (glucose release from SG1) by antiviral,"[3]; antiviral premixed with bacterial NA, then SG1",NA still cleaved SG1; also recorded: glucose was released
same,inhibition of NA (glucose release from SG1) by antiviral,[4],completely inhibited
same,inhibition of NA (glucose release from SG1) by antiviral,[5],completely inhibited; also recorded: Glucose was not released
same,inhibition of NA (glucose release from SG1) by antiviral,[6],completely inhibited; also recorded: Glucose was not released
same,inhibition of NA (glucose release from SG1) by antiviral,[7],completely inhibited
same,inhibition of NA (glucose release from SG1) by antiviral,[8],completely inhibited; also recorded: Glucose was not released
CC(=O)NC1[C@@H](Oc2ccc(CO[C@@H]3OC(CO)[C@@H](O)[C@H](O)C3O)cc2)OC(CO)[C@@H](O)[C@@H]1O (some centres unmarked) [Substrate 24],"i, value of electrochemical assay",[9],11.1 ± 2.3 10^−8 A
CCOC(=O)C1=C[C@@H](OC(CC)CC)[C@H](NC(C)=O)[C@@H](N)C1 [Oseltamivir],inhibition of NA (glucose release from SG1) by antiviral,[4],completely inhibited
same,inhibition of NA (glucose release from SG1) by antiviral,[5],completely inhibited; also recorded: Glucose was not released
same,inhibition of NA (glucose release from SG1) by antiviral,[6],completely inhibited; also recorded: Glucose was not released
same,inhibition of NA (glucose release from SG1) by antiviral,[7],completely inhibited
same,inhibition of NA (glucose release from SG1) by antiviral,[8],completely inhibited; also recorded: Glucose was not released
"CC(=O)N[C@H]1[C@H]([C@H](O)[C@H](O)CO)O[C@@](OC[C@H]2OC(O)[C@H](O)[C@@H](O)[C@@H]2O)(C(=O)O)C[C@@H]1O (stereo partly drawn) [SG1, 5-acetamido-3,5-dideoxy-D-glycero-α-D-galacto-non-2-ulopyranosylonate-(2→6)-α,β-D-gluco pyranoside]",Electrochemical assay (current),[10],106.2 ± 5.1 ×10^−8 A
same,Electrochemical assay (current),[11],107.8 ± 5.9 ×10^−8 A
same,cleavage of SG1 / glucose release,"[3]; bacterial NA, no antiviral",cleaves SG1 to release glucose
same,Electrochemical assay (current),[12],94.5 ± 2.3 ×10^−8 A
same,cleavage of SG1 / glucose release,[4]; [31],complete cleavage; also recorded: Glucose was released
same,Electrochemical assay (current),[13],98.9 ± 5.7 ×10^−8 A
same,glucose release in the absence of enzymes,[14],no glucose released
same,Electrochemical assay (current),[15],108.5 ± 12.0 ×10^−8 A
same,Electrochemical assay (current),[16],115.7 ± 4.3 ×10^−8 A
same,Electrochemical assay (current),[17],13.4 ± 2.0 ×10^−8 A
same,Electrochemical assay (current),[18],99.5 ± 4.4 ×10^−8 A
same,Electrochemical assay (current),[19],64.4 ± 5.2 ×10^−8 A
same,matrix effect on cleavage of SG1,[5],does not affect the cleavage
same,cleavage of SG1 / glucose release,[5]; [32],"cleave SG1, releasing glucose; also recorded: Glucose was released"
same,Electrochemical assay (current),[20],118.1 ± 11.6 ×10^−8 A
same,Electrochemical assay (current),[21],15.1 + 2.8 ×10^−8 A
same,Electrochemical assay (current),[22],91.7 ± 9.7 ×10^−8 A
same,Electrochemical assay (current),[23],79.7 ± 5.0 ×10^−8 A
same,cleavage of SG1 / glucose release,[6]; [32],"cleave SG1, releasing glucose; also recorded: Glucose was released"
same,Electrochemical assay (current),[24],132.4 ± 6.3 ×10^−8 A
same,cleavage of SG1 / glucose release,[7]; [31],complete cleavage; also recorded: Glucose was released
same,time to completely cleave SG1,[25]; [33],require longer time to completely cleave SG1
same,Electrochemical assay (current),[25]; [34],17.7 ± 2.6 ×10^−8 A
same,Electrochemical assay (current),[26],74.4 ± 5.6 ×10^−8 A
same,time to completely cleave SG1,[27]; [33],require longer time to completely cleave SG1
same,Electrochemical assay (current),[27]; [34],31.3 ± 5.3 ×10^−8 A
same,Electrochemical assay (current),[28],3.6 ± 2.2 ×10^−8 A
same,cleavage of SG1 / glucose release,[8]; [32],"cleave SG1, releasing glucose; also recorded: Glucose was released"
same,Electrochemical assay (current),[29],13.4 + 1.5 ×10^−8 A
CC1O[C@@H](OCC2OC(O)C(O)[C@@H](O)[C@@H]2O)C(O)[C@@H](O)[C@@H]1O (some centres unmarked) [Substrate 25],"i, value of electrochemical assay",[30],44.5 ± 2.9 10^−8 A
